Laboratory results from patent publication US4820717A, “Antimicrobial aromatic derivatives substituted by an (omega amino) alkanol group and compositions containing them” (priority 1985, dated 1989).
≈ marks a conversion by molar mass, not a printed value.

Experiments:
[1] = system: Staphylococcus aureus CNCM 53154; experiment: Bactericidal activity (MBC), strain 5; format: cell-based; conditions: CNCM53154, 20 min, strain 5, 20 minutes of contact, read-out: Minimum bactericidal concentration (MBC)
Text: (§1) The bactericidal activity of the products according to the invention has been analyzed on various strains by the method described hereafter:
(§2) A bacterial inoculum is placed in contact with different dilutions of the product to be tested, and this for a limited period of time. At the end of contact, an aliquot part of the mixture bacterial suspension/product is deposited on the surface of an agar culture medium containing an agent neutralizing the antibacterial activity of the product. The bactericidal concentration retained is the smallest concentration of the product from which bacteria stop growing. Said concentration is expressed in μg/ml.
(§3) The bacterial strains selected for the analysis are:
5--Staphylococcus aureus CNCM 53154.
(§4) The second strain is supported on a Worgel Fergusson medium, the other strains being supported on Tryptic Soy Agar-Difco (TSA) commercialized by Difco.
(§5) After a 24-hour culture period at 37° C., the microbial growth is collected by means of glass beads and of 10 ml of diluent containing 1 g of tryptone and 8.5 g of sodium chloride in 1000 ml of distilled water. The formed suspension is stirred and the percentage of light transmission at 620 nm is measured with a spectrophotometer:
(§6) The bacterial inoculum corresponds to a 1/20th dilution of this bacterial suspension.
(§7) Plates equipped with cupules receive different dilutions of the product to be analyzed. These dilutions are placed in contact with the different bacterial suspensions by means of a multiple-center inoculator. After 20 minutes of contact, aliquot parts are transferred by means of said inoculator on the surface of an agar medium (TSA) in Petri dishes, containing an activity-neutralizing agent, namely 20 g of lubrol W, 25 g of Tween 80 and 2.5 g of sodium thiosulfate in 1000 ml of TSA (Difco). The efficiency of the neutralizing agent is controlled for each product to be analyzed by depositing on the surface of the culture medium an aliquot part of the dilution of the product to be analyzed. After drying, the corresponding inoculum is deposited in the same place. An inoculum control is performed on an agar medium with or without neutralizing agent. Readings are taken after 48 hours of incubation at 37° C.

[2] = system: Encapsulated klebsiella pneumoniae R030; experiment: Bactericidal activity (MBC), strain 2; format: cell-based; conditions: 20 min, strain 2, 20 minutes of contact, read-out: Minimum bactericidal concentration (MBC)
Text: as §1, §2, §3
2--Encapsulated klebsiella pneumoniae R030;
as §4, §5, §6, §7

[3] = system: Escherichia Coli CNCM 54125; experiment: Bactericidal activity (MBC), strain 1; format: cell-based; conditions: 20 min, strain 1, 20 minutes of contact, read-out: Minimum bactericidal concentration (MBC)
Text: as §1, §2, §3
1--Escherichia Coli CNCM 54125;
as §4, §5, §6, §7

[4] = Acute toxicity by oral route in mice; conditions: mouse, in vivo, per os, male CD1 mice, 14 days observation
Procedure: Acute toxicity was tested by oral route in mice. This test was carried out with male mice of CD1 strain, obtained from the Charles Reever breeding farm. Each batch was composed of 5 animals of body weight varying between 24 and 30 g kept in the same cage. The animals were kept fasting for 6 hours before the treatment. For every test, the product, placed in suspension in a 10% solution of gum arabic, was administered by forcible feeding with an oesophageal probe. Food was then served to the animals 4 hours after the forcible feeding and the animals were kept under observation for a period of 14 days after the administration. During that period, the death rate is recorded for each batch of animals used in the experiment and, wherever possible, the LD50 is determined by the method of J. T. Litchfield and F. Wilcoxon, J. Pharmacol. 1949, 95, 99-113.
The results are given in mg of substance tested per kg of body weight. They are compiled in Table III below.

[5] = system: Pseudomonas aeruginosa CNCM A22; experiment: Bactericidal activity (MBC), strain 3; format: cell-based; conditions: CNCMA22, 20 min, strain 3, 20 minutes of contact, read-out: Minimum bactericidal concentration (MBC)
Text: as §1, §2, §3
3--Pseudomonas aeruginosa CNCM A22;
as §4, §5, §6, §7

[6] = system: Streptococcus faecalis CNCM 5855; experiment: Bactericidal activity (MBC), strain 4; format: cell-based; conditions: Enterococcus faecalis, CNCM5855, 20 min; strain 4, 20 minutes of contact; read-out: Minimum bactericidal concentration (MBC)
Text: as §1, §2, §3
4--Streptococcus faecalis CNCM 5855;
as §4, §5, §6, §7

Candida tropicalis 3834 = experiment: Antifungal activity (MFC), strain 2; format: cell-based; conditions: 20 min; yeast strain 2; read-out: Minimum fongicidal concentration (MFC)
Text: as §2, §7
(§8) The antifungal activity of the products according to the invention was also determined with the aforedescribed method.
(§9) The fungal strains selected for the analysis are:
2--Candida tropicalis 3834;
(§10) These strains are supported on a Sabouraud Dextrose agar medium commercialized by Difco; the technique used is the same as that used in the analysis of the antibacterial activity. After 48 hours of culture at 37° C., the microbial growth is collected with glass beads and 5 ml of diluent containing 1 g of tryptone and 8.5 g of sodium chloride in 1000 ml of distilled water; 5 ml of the diluent are then added. […] A 1/100th dilution of this suspension, observed between slides under a microscope 40-lens, should show 10 cells per frame, this corresponding to 1,000,000 yeasts per ml.

[7] = system: Candida albicans CNCM 1180; experiment: Antifungal activity (MFC), strain 1; format: cell-based; conditions: 20 min; yeast strain 1; read-out: Minimum fongicidal concentration (MFC)
Text: as §2, §7, §8, §9
1--Candida albicans CNCM 1180;
as §10

Candida parakruzei 3918 = experiment: Antifungal activity (MFC), strain 3; format: cell-based; conditions: 20 min; yeast strain 3; read-out: Minimum fongicidal concentration (MFC)
Text: as §2, §7, §8, §9
3--Candida parakruzei 3918;
as §10

[8] = system: Torulopsis glabrata 072023; experiment: Antifungal activity (MFC), strain 4; format: cell-based; conditions: 20 min; yeast strain 4; read-out: Minimum fongicidal concentration (MFC)
Text: as §2, §7, §8, §9, §10

Structure (SMILES)	MBC [1] [µg/mL]	MBC [2] [µg/mL]	MBC [3] [µg/mL]	LD50 at 336 h [4] [mg/kg]	MBC [5] [µg/mL]	MBC [6] [µg/mL]	MFC (Candida tropicalis 3834) [µg/mL]	MFC [7] [µg/mL]	MFC (Candida parakruzei 3918) [µg/mL]	MFC [8] [µg/mL]
CCN(CC)CCC(CO)c1cccc2ccccc12.Cl (stereo not shown) [SR 42 989 A, 4-(N,N-diethylamino)-2-(1-naphthyl)-butanol hydrochloride]	1500	1500	1500	300 to 400	1500	2000				
OCC(CCN1CCCCCC1)c1c(Cl)cccc1Cl (stereo not shown) [SR 43 703 A]	1000 (≈ 3160 µM)	600 (≈ 1900 µM)	600 (≈ 1900 µM)		400 (≈ 1260 µM)	800 (≈ 2530 µM)				
OCC(CCCN1CCCCC1)c1cccc2ccccc12 (stereo not shown) [SR 43 087 A]	800 (≈ 2690 µM)	1000 (≈ 3360 µM)	1500 (≈ 5040 µM)		800 (≈ 2690 µM)	2000 (≈ 6720 µM)	1000 (≈ 3360 µM)	1000 (≈ 3360 µM)	1000 (≈ 3360 µM)	5000 (≈ 16800 µM)
OCC(CCN1CCCC1)c1cccc2ccccc12 (stereo not shown) [SR 43 063 A]	1000 (≈ 3710 µM)	1000 (≈ 3710 µM)	2000 (≈ 7420 µM)	300 to 400	1000 (≈ 3710 µM)	2000 (≈ 7420 µM)				
CN(C)CCCC(CO)c1cccc2ccccc12 (stereo not shown) [SR 42 994 A]	1000 (≈ 3890 µM)	800 (≈ 3110 µM)	1000 (≈ 3890 µM)	750 to 1000	1000 (≈ 3890 µM)	1000 (≈ 3890 µM)	500 (≈ 1940 µM)	500 (≈ 1940 µM)	500 (≈ 1940 µM)	5000 (≈ 19400 µM)
OCC(CCN1CCCCCC1)c1ccc(Cl)c(Cl)c1 (stereo not shown) [SR 43 803 A]	400 (≈ 1260 µM)	400 (≈ 1260 µM)	400 (≈ 1260 µM)		500 (≈ 1580 µM)	400 (≈ 1260 µM)	500 (≈ 1580 µM)	1000 (≈ 3160 µM)	500 (≈ 1580 µM)	2000 (≈ 6320 µM)
CCN(CC)CCCCCCC(CO)c1cccc2ccccc12 (stereo not shown) [SR 43 940 A]	50 (≈ 153 µM)	50 (≈ 153 µM)	50 (≈ 153 µM)		50 (≈ 153 µM)	50 (≈ 153 µM)				
OCC(CCN1CCCCCC1)c1ccc(Cl)cc1Cl (stereo not shown) [SR 43 802 A]	5000 (≈ 15800 µM)	1000 (≈ 3160 µM)	1000 (≈ 3160 µM)		1000 (≈ 3160 µM)	2000 (≈ 6320 µM)				
OCC(CCCN1CCN(c2ccccc2)CC1)c1ccccc1 (stereo not shown) [SR 43 970 A, reference compound]	5000 (≈ 15400 µM)	5000 (≈ 15400 µM)	5000 (≈ 15400 µM)		2000 (≈ 6160 µM)	10000 (≈ 30800 µM)				
OCC(CCN1CCC(Cc2ccccc2)CC1)c1ccccc1 (stereo not shown) [SR 43 705 A]	500 (≈ 1550 µM)	500 (≈ 1550 µM)	500 (≈ 1550 µM)		500 (≈ 1550 µM)	500 (≈ 1550 µM)				
CCN(CC)CCCCCCCCCC(CO)c1cccc2ccccc12 (stereo not shown) [SR 43 826 A]	50 (≈ 135 µM)	50 (≈ 135 µM)	50 (≈ 135 µM)		50 (≈ 135 µM)	50 (≈ 135 µM)	50 (≈ 135 µM)	250 (≈ 676 µM)	50 (≈ 135 µM)	250 (≈ 676 µM)
OCC(CCN1CCCCCC1)c1cccc2ccccc12 (stereo not shown) [SR 43 155 A]	500 (≈ 1680 µM)	500 (≈ 1680 µM)	500 (≈ 1680 µM)	< 500	200 (≈ 672 µM)	500 (≈ 1680 µM)	500 (≈ 1680 µM)	500 (≈ 1680 µM)	500 (≈ 1680 µM)	2000 (≈ 6720 µM)
OCC(CCCCCN1CCC(Cc2ccccc2)CC1)c1cccc2ccccc12 (stereo not shown) [SR 43 941 A]	50 (≈ 120 µM)	50 (≈ 120 µM)	50 (≈ 120 µM)		50 (≈ 120 µM)	50 (≈ 120 µM)	100 (≈ 241 µM)	100 (≈ 241 µM)	250 (≈ 602 µM)	250 (≈ 602 µM)
Cl.OCC(CCN1CCC(Cc2ccccc2)CC1)c1ccc(Cl)c(Cl)c1 (stereo not shown) [SR 43 969 A, 4-(4-benzylpiperidino)-2-(3,4-dichlorophenyl)butanol hydrochloride]	50	100	50		500	100	50	50	100	500
CC1CCN(CCC(CO)c2cccc3ccccc23)CC1 (stereo not shown) [SR 43 382 A]	2000 (≈ 6720 µM)	2000 (≈ 6720 µM)	5000 (≈ 16800 µM)		2000 (≈ 6720 µM)	5000 (≈ 16800 µM)	1000 (≈ 3360 µM)	5000 (≈ 16800 µM)	2000 (≈ 6720 µM)	10000 (≈ 33600 µM)
OCC(CCN(C1CCCCC1)C1CCCCC1)c1cccc2ccccc12 (stereo not shown) [SR 44 227 A]	500 (≈ 1320 µM)	300 (≈ 790 µM)	100 (≈ 263 µM)		500 (≈ 1320 µM)	100 (≈ 263 µM)				
OCC(CCN1CCCCC1)c1ccc2ccccc2c1 (stereo not shown) [SR 43 154 A]	1000 (≈ 3530 µM)	1500 (≈ 5290 µM)	2000 (≈ 7060 µM)		800 (≈ 2820 µM)	1500 (≈ 5290 µM)				
CN1CCN(CCC(CO)c2cccc3ccccc23)CC1 (stereo not shown) [SR 43 291A, reference compound]	8000 (≈ 26800 µM)	3000 (≈ 10100 µM)	5000 (≈ 16800 µM)		1000 (≈ 3350 µM)	> 10000				
Cc1cccc(C(CO)CCN2CCC(Cc3ccccc3)CC2)c1 (stereo not shown) [SR 44 226 A]	2000 (≈ 5930 µM)	1000 (≈ 2960 µM)	1000 (≈ 2960 µM)		500 (≈ 1480 µM)	1000 (≈ 2960 µM)				
CCC(CO)(CCN1CCCCC1)c1cccc2ccccc12.Cl (stereo not shown) [SR 43 245 A, 2-ethyl-2-(1-naphthyl)-4-piperidino-butanol hydrochloride]	1000	1000	1500		800	1500				
OCC(CCN1CCc2ccccc2C1)c1cccc2ccccc12 (stereo not shown) [SR 43 247 A]	500 (≈ 1510 µM)	300 (≈ 905 µM)	300 (≈ 905 µM)		300 (≈ 905 µM)	300 (≈ 905 µM)	500 (≈ 1510 µM)	1000 (≈ 3020 µM)	1000 (≈ 3020 µM)	2000 (≈ 6030 µM)
CC1CCN(CCCC(CO)c2cccc3ccccc23)CC1 (stereo not shown) [SR 43 290 A]	800 (≈ 2570 µM)	800 (≈ 2570 µM)	1500 (≈ 4820 µM)		800 (≈ 2570 µM)	4000 (≈ 12800 µM)				
OCC(CCN1CCC(Cc2ccccc2)CC1)c1ccc(Cl)cc1Cl (stereo not shown) [SR 44 027 A]	200 (≈ 510 µM)	50 (≈ 127 µM)	50 (≈ 127 µM)	1000 to 1200	100 (≈ 255 µM)	100 (≈ 255 µM)	250 (≈ 637 µM)	250 (≈ 637 µM)	500 (≈ 1270 µM)	250 (≈ 637 µM)
OCC(CCN1CCC(Cc2ccccc2)CC1)c1ccc(-c2ccccc2)cc1 (stereo not shown) [SR 44 029 A]	50 (≈ 125 µM)	50 (≈ 125 µM)	10 (≈ 25 µM)		50 (≈ 125 µM)	50 (≈ 125 µM)	50 (≈ 125 µM)	50 (≈ 125 µM)	50 (≈ 125 µM)	100 (≈ 250 µM)
CC(C)N(CCC(CO)c1cccc2ccccc12)C(C)C (stereo not shown) [SR 43 121 A]	800 (≈ 2670 µM)	1500 (≈ 5010 µM)	1500 (≈ 5010 µM)	300 to 400	1500 (≈ 5010 µM)	800 (≈ 2670 µM)				
